The source made the active and inactive calls. No cut-off for these calls is given here.

The test system of experiment [1] is Mus musculus. Briefly: Psychedelic like activity in male BALB/c mouse assessed as induction of head-twitch responses at 1 mg/kg, ip measured after 30 mins by video recording analysis. The experiment is classed as functional, organism-based.
Experiment [2] concerns Mus musculus. As to the kind of experiment: Psychedelic like activity in male BALB/c mouse assessed as induction of head-twitch responses administered intraperitoneally and measured after 30 mins by video recording analysis. The experiment is classed as functional. To be noted: 0.5 h, route ip.
The subject of experiment [3] is Mus musculus. As to the kind of experiment: Psychedelic like activity in male BALB/c mouse assessed as induction of head-twitch responses at 3 to 10 mg/kg, ip measured after 30 mins by video recording analysis. Type of experiment: functional, organism-based. To be noted: dose 3-10 mg/kg.

With `CN(C)CCc1c[nH]c2c(O)cccc12`, the result in the experiment on Mus musculus [1] was inactive.

Consider `CN(C)CCc1c[nH]c2cc(O)ccc12`, for which, in the experiment with Mus musculus [1], the outcome was inactive.

Take `CN(C)CCc1c[nH]c2ccc(O)cc12`: in the experiment with Mus musculus [1], the outcome was Active.

Consider `CN(C)CCc1c[nH]c2cccc(O)c12` [PSILOCIN], for which, in the experiment on Mus musculus [2], the ED50 turned out to be 0.86 mg/kg. The outcome in the experiment with Mus musculus [1] was Active. For the same molecule, the result with Mus musculus [3] was inactive.

These data come from ChEMBL document CHEMBL6087419, “Structural insights into tryptamine psychedelics: The role of hydroxyl indole ring site in 5-HT2A receptor activation and psychedelic-like activity” (Eur J Med Chem, 2025).
